Experimental data: patent publication EP0888055B1, “HERBICIDAL COMPOSITION AND METHOD OF WEED CONTROL” (Novartis AG, priority 1996, dated 1997)

Columns and labels:
Maize [1] = assay: Pre-emergence test (Example B2), tolerance of useful plant; assay type: in vivo
Excerpt: (§1) The test plants are sown in plastics pots in standard soil. Directly after sowing the test compounds are applied by spraying, separately or in admixture, in the form of an aqueous suspension of the test compounds (Formulation Example F8, c) and d)) or in the form of an emulsion concentrate (Formulation Example F1, d)) in 500 l of water/ha. The rates of application conform to the optimum concentrations ascertained under field conditions and greenhouse conditions. The test plants are then cultivated in the greenhouse under optimum conditions. After 34 days' (Tables B2 to B5) and 41 days' (Table B6) test duration, the test is evaluated (% action, 100 % = plants have died, 0 % = no phytotoxic action). From 61 to 80 % (especially from 81 to 100 %) phytotoxicity indicates good to very good herbicidal action in weeds; from 0 to 15 % (especially from 0 to 5 %) phytotoxicity indicates good to very good tolerance in useful plants.

Euphorbia = assay: Pre-emergence test (Example B2); assay type: in vivo
Excerpt: (§2) The expected herbicidal action E for a given combination of two herbicides can be calculated as follows (see COLBY, S.R., "Calculating synergistic and antagonistic response of herbicide combinations", Weeds 15, pages 20-22, 1967): E = X +(Y • (100 - X))/(100) [formula]
(§3) In the above formula: X = percentage growth inhibition in the case of treatment with the compound of formula A at a rate of application of p kg per hectare compared with the untreated control (= 0 %). Y = percentage herbicidal action in the case of treatment with one of the mixing partners at a rate of application of q kg per hectare compared with the untreated control. E = Expected herbicidal action (percentage herbicidal action compared with the untreated control) after treatment with the compounds of formulae A and the mixing partners at a rate of application of p + q kg of active ingredient per hectare.
as §1
(§4) Test plants: abutilon, bidens, euphorbia, ipomoea, sesbamia, xanthium, rottboellia, sida, Sorghum bicolor.

Sida = assay: Pre-emergence test (Example B2); assay type: in vivo
Excerpt: as §2, §3, §1, §4

Ipomoea = assay: Pre-emergence test (Example B2); assay type: in vivo
Excerpt: as §2, §3, §1, §4

Sesbania = assay: Pre-emergence test (Example B2); assay type: in vivo; conditions: 34 days
Excerpt: as §2, §3, §1, §4

Rottboellia = assay: Pre-emergence test (Example B2); assay type: in vivo
Excerpt: as §2, §3, §1, §4

Abutilon = assay: Pre-emergence test (Example B2); assay type: in vivo
Excerpt: as §2, §3, §1, §4

Bidens = assay: Pre-emergence test (Example B2); assay type: in vivo; conditions: 34 days
Excerpt: as §2, §3, §1, §4

Sorghum bic. = assay: Pre-emergence test (Example B2); assay type: in vivo, Sorghum bicolor; conditions: 8 g active ingredient/ha, 41 days
Excerpt: as §2, §3
The test plants are sown in plastics pots in standard soil. Directly after sowing the test compounds are applied by spraying, separately or in admixture, in the form of an aqueous suspension of the test compounds (Formulation Example F8, c) and d)) or in the form of an emulsion concentrate (Formulation Example F1, d)) in 500 l of water/ha. […] After 34 days' (Tables B2 to B5) and 41 days' (Table B6) test duration, the test is evaluated (% action, 100 % = plants have died, 0 % = no phytotoxic action). […]

Brachiaria [2] = assay: Pre-emergence test (Example B2); assay type: in vivo; conditions: 60 g active ingredient/ha, 34 days
Excerpt: as §2, §3, §1

Echinochloa = assay: Post-emergence test (Example B1); assay type: in vivo; conditions: 24 days
Excerpt: as §2, §3
(§5) The test plant seeds are grown to the 4- to 6-leaf stage under greenhouse conditions in plastics pots. The culture substrate used is a standard soil. At the 4- to 6-leaf stage the herbicides are applied separately and in admixture to the test plants. The test compounds are applied in the form of an aqueous suspension (Formulation Example F8, c)) in 500 l of water/ha. The rates of application conform to the optimum concentrations ascertained under field conditions and greenhouse conditions. Evaluation of the tests is carried out after 24 days. The following linear scale is used as a measure (% action): • 100 % = plants have died • 50 % = moderate action • 0 % = no phytotoxic action (as untreated control).
(§6) Test plants: brachiaria, cyperus, digitaria, echinochloa, panicum.

Brachiaria [3] = assay: Post-emergence test (Example B1); assay type: in vivo; conditions: 24 days
Excerpt: as §2, §3, §5, §6

Digitaria = assay: Post-emergence test (Example B1); assay type: in vivo; conditions: 24 days
Excerpt: as §2, §3, §5, §6

Panicum = assay: Post-emergence test (Example B1); assay type: in vivo; conditions: 24 days
Excerpt: as §2, §3, §5, §6

Cyperus = assay: Post-emergence test (Example B1); assay type: in vivo; conditions: 24 days
Excerpt: as §2
In the above formula: X = percentage growth inhibition in the case of treatment with the compound of formula A at a rate of application of p kg per hectare compared with the untreated control (= 0 %). Y = percentage herbicidal action in the case of treatment with one of the mixing partners at a rate of application of q kg per hectare compared with the untreated control.
as §5, with “days.” for “days. The following linear scale is used as a measure (% action): • 100 % = plants have died • 50 % = moderate action • 0 % = no phytotoxic action (as untreated control).”
as §6

Maize [4] = assay: Breakdown in treated useful plants; conditions: after application of the compositions; especially maize; compared with metolachlor
Xanthium = assay: Pre-emergence test (Example B2); assay type: in vivo; conditions: 34 days
Excerpt: as §2, §3, §1, §4

[5] = 250 g active ingredient/ha, 34 days
[6] = 500 g active ingredient/ha, 34 days
[7] = 1000 g active ingredient/ha, 34 days
[8] = 125 g active ingredient/ha, 34 days
[9] = 8 g active ingredient/ha, 41 days
[10] = 15 g active ingredient/ha, 34 days
[11] = 15 g active ingredient/ha, 41 days
[12] = 30 g active ingredient/ha, 34 days
[13] = 60 g active ingredient/ha, 34 days
[14] = 60 g active ingredient/ha, 41 days
[15] = 30 g active ingredient/ha, 41 days

SMILES: CCc1cccc(C)c1N(C(=O)CCl)C(C)COC (racemic) [Met.rac., metolachlor]
- Herbicidal activity, Useful plant: Maize (Maize [1]; [5]): 0%
- Herbicidal activity, Useful plant: Maize (Maize [1]; [6]): 0%
- Herbicidal activity, Useful plant: Maize (Maize [1]; [7]): 0%
- Herbicidal activity, Weed: Euphorbia (Euphorbia; [6]): 0%
- Herbicidal activity, Weed: Sida (Sida; [5]): 0%
- Herbicidal activity, Weed: Sida (Sida; [6]): 50%
- Herbicidal activity, Weed: Ipomoea (Ipomoea; [7]): 0%
- Herbicidal activity, Weed: Sesbania (Sesbania; 1000 g active ingredient/ha): 60%
- Herbicidal activity, Weed: Rottboellia (Rottboellia; [7]): 0%
- Herbicidal activity, Weed: Abutilon (Abutilon; [6]): 20%
- Herbicidal activity, Weed: Abutilon (Abutilon; [7]): 20%
- Herbicidal activity, Weed: Bidens (Bidens; 1000 g active ingredient/ha): 30%

SMILES: CCNc1nc(Cl)nc(NC(C)(C)C)n1 [Terb, terbuthylazine]
- Herbicidal activity, Useful plant: Maize (Maize [1]; [8]): 0%
- Herbicidal activity, Useful plant: Maize (Maize [1]; [5]): 0%
- Herbicidal activity, Useful plant: Maize (Maize [1]; [6]): 0%
- Herbicidal activity, Weed: Euphorbia (Euphorbia; [8]): 40%
- Herbicidal activity, Weed: Euphorbia (Euphorbia; [5]): 70%
- Herbicidal activity, Weed: Euphorbia (Euphorbia; [6]): 95%
- Herbicidal activity, Weed: Ipomoea (Ipomoea; [8]): 0%
- Herbicidal activity, Weed: Ipomoea (Ipomoea; [6]): 95%
- Herbicidal activity, Weed: Sesbania (Sesbania; 250 g active ingredient/ha): 80%
- Herbicidal activity, Weed: Abutilon (Abutilon; [5]): 30%
- Herbicidal activity, Weed: Abutilon (Abutilon; [6]): 90%
- Herbicidal activity, Weed: Bidens (Bidens; 125 g active ingredient/ha): 0%
- Herbicidal activity, Weed: Bidens (Bidens; 250 g active ingredient/ha): 60%

SMILES: C=CCOC(=O)C(C)(C)OC(=O)c1cc(-n2c(=O)cc(C(F)(F)F)n(C)c2=O)ccc1Cl [A]
- Herbicidal activity, Weed: Sorghum bic. (Sorghum bic.): 0%
- Herbicidal activity, Useful plant: Maize (Maize [1]; [9]): 0%
- Herbicidal activity, Useful plant: Maize (Maize [1]; [10]): 0%
- Herbicidal activity, Useful plant: Maize (Maize [1]; [11]): 0%
- Herbicidal activity, Useful plant: Maize (Maize [1]; [12]): 10%
- Herbicidal activity, Useful plant: Maize (Maize [1]; [13]): 10%
- Herbicidal activity, Useful plant: Maize (Maize [1]; [14]): 40%
- Herbicidal activity, Weed: Brachiaria (Brachiaria [2]): 60%
- Herbicidal activity, Weed: Echinochloa (Echinochloa; 100 g active ingredient/ha): 15%
- Herbicidal activity, Weed: Echinochloa (Echinochloa; 200 g active ingredient/ha): 45%
- Herbicidal activity, Weed: Brachiaria (Brachiaria [3]; 100 g active ingredient/ha): 10%
- Herbicidal activity, Weed: Brachiaria (Brachiaria [3]; 200 g active ingredient/ha): 15%
- Herbicidal activity, Weed: Digitaria (Digitaria; 50 g active ingredient/ha): 85%
- Herbicidal activity, Weed: Digitaria (Digitaria; 100 g active ingredient/ha): 90%
- Herbicidal activity, Weed: Digitaria (Digitaria; 200 g active ingredient/ha): 90%
- Herbicidal activity, Weed: Panicum (Panicum; 50 g active ingredient/ha): 50%
- Herbicidal activity, Weed: Panicum (Panicum; 200 g active ingredient/ha): 70%
- Herbicidal activity, Weed: Cyperus (Cyperus; 50 g active ingredient/ha): 50%
- Herbicidal activity, Weed: Cyperus (Cyperus; 100 g active ingredient/ha): 60%
- breakdown in the useful plants treated (Maize [4]): broken down more rapidly
- Herbicidal activity, Weed: Euphorbia (Euphorbia; [10]): 0%
- Herbicidal activity, Weed: Euphorbia (Euphorbia; [11]): 85%
- Herbicidal activity, Weed: Euphorbia (Euphorbia; [12]): 90%
- Herbicidal activity, Weed: Xanthium (Xanthium; 15 g active ingredient/ha): 0%
- Herbicidal activity, Weed: Xanthium (Xanthium; 30 g active ingredient/ha): 0%
- Herbicidal activity, Weed: Xanthium (Xanthium; 60 g active ingredient/ha): 20%
- Herbicidal activity, Weed: Sida (Sida; [9]): 40%
- Herbicidal activity, Weed: Sida (Sida; [10]): 80%
- Herbicidal activity, Weed: Ipomoea (Ipomoea; [12]): 20%
- Herbicidal activity, Weed: Ipomoea (Ipomoea; [15]): 0%
- Herbicidal activity, Weed: Ipomoea (Ipomoea; [13]): 30%
- Herbicidal activity, Weed: Sesbania (Sesbania; 60 g active ingredient/ha): 50%
- Herbicidal activity, Weed: Rottboellia (Rottboellia; [15]): 80%
- Herbicidal activity, Weed: Rottboellia (Rottboellia; [13]): 30%
- Herbicidal activity, Weed: Rottboellia (Rottboellia; [14]): 70%
- Herbicidal activity, Weed: Abutilon (Abutilon; [9]): 50%
- Herbicidal activity, Weed: Abutilon (Abutilon; [10]): 20%
- Herbicidal activity, Weed: Abutilon (Abutilon; [11]): 80%
- Herbicidal activity, Weed: Abutilon (Abutilon; [12]): 40%
- Herbicidal activity, Weed: Bidens (Bidens; 15 g active ingredient/ha): 20%
- Herbicidal activity, Weed: Bidens (Bidens; 30 g active ingredient/ha): 30%
- Herbicidal activity, Weed: Bidens (Bidens; 60 g active ingredient/ha): 90%
